Measurements: patent US20240132485A1, “HETEROCYCLIC CULLIN RING UBIQUITIN LIGASE COMPOUNDS AND USES THEREOF” (CEMM - FORSCHUNGSZENTRUM FÜR MOLEKULARE MEDIZIN GMBH, priority 2020, published 2024)

Experiments:
KBM7_WT cells = experiment: Cell viability assay (CellTiter Glo), KBM7 wild-type, 3-day treatment; format: cell-based; details: Homo sapiens, KBM-7, 72 h, read-out: LC50 KBM7_WT
Description: (§1) KBM7^WT, UBE2M and CUL4B mutant KBM7 clones (UBE2M^mut and CUL4B^mut) were seeded at a cell density of 50,000 cells/mL in 96-well with DMSO or degraders Z1 to Z3, Z5 to Z7, Z9 to Z11, Z13 and Z14 in triplicates. Cells were treated for 3 days, after which a cell viability assay was performed (CellTiter Glo, Promega), according to manufacturer's protocol. Survival curves and IC50 values (LC50 values) were calculated by best-fit analysis of the log 10 drug concentration to fold change of drug-treated cells over DMSO-treated cells. All survival assays included technical triplicates per sample, per experiment.
(§2) Compounds, Z1 to Z3, Z5 to Z7, Z9 to Z11, Z13 and Z14, were tested for their antiproliferative effects in human leukemia cells (KBM7). These cells were either transduced with a control sgRNA (KBM7_WT), or with an sgRNA targeting UBE2M or CUL4B, leading to a hypomorph (deletion of six amino acids) with a functional impairment (UBE2M_MUT).
(§3) Indeed, 11 compounds Z1 to Z3, Z5 to Z7, Z9 to Z11, Z13 and Z14 were identified to fulfill these criteria and to stand out in terms of fold-change significance; see, e.g., FIG. 1 and Table 1. The dose ranging differential effect of these hits was assessed/validated, comparing their activity in KBM7_WT (KBM7^WT) vs UBE2_MUT and CUL4B_MUT cells (UBE2M^mut and CUL4B^mut).

UBE2M_MUT KBM7 cells = experiment: Cell viability assay (CellTiter Glo), UBE2M mutant KBM7 clone, 3-day treatment; format: cell-based; details: Homo sapiens, KBM-7, 72 h, UBE2M mutant KBM7, 3-day treatment, read-out: LC50 UBE2M_MUT
Description: as §1, §2, §3

CUL4B_MUT KBM7 cells = experiment: Cell viability assay (CellTiter Glo), CUL4B mutant KBM7 clone, 3-day treatment; format: cell-based; details: Homo sapiens, KBM-7, 72 h, CUL4B mutant KBM7, 3-day treatment, read-out: LC50 CUL4B_MUT
Description: as §1, §2, §3

Cyclin K = details: cited from earlier work
[1] = biological target: T1, DDB1-CDK12/Cyclin K ternary complex (Homo sapiens, UniProt Q16531+Q9NYV4); experiment: NanoBRET fold-change assay (HaloTag_CDK12 / NanoLuc_DDB1 in HEK293T); format: cell-based; details: 10 μM compound, 10 minutes
T1 construct: expressed in transfected cells; host or cells: HEK293T wildtype cells, transient PEI transfection
Summary of the method: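 HEK293T cells transiently co-transfected with HaloTag_CDK12 and NanoLuc_DDB1, labelled overnight with 100 nM HaloTag 618 ligand (DMSO no-ligand control), then treated with compound at 10 μM final for 10 min at room temperature. BRET read as 460 nm donor and 647 nm acceptor emission after Nano-Glo substrate; reported as fold change.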

[2] = biological target: T1, DDB1-CDK12/Cyclin K ternary complex; experiment: NanoBRET EC50 assay (HaloTag_CDK12 / NanoLuc_DDB1 in HEK293T); format: cell-based; details: for EC50: read-out: NanoBRET EC50 Activity Class
Description: This assay measures the interaction/recruitment of CDK12/Cyclin K to DDB1, mechanistically validating the molecular glue pharmacology.
HEK293T wildtype cells are seeded 800 k cells/well (DMEM+10% FBS+1% PS) in a 6-well plate and allowed to attach for ˜7 hours followed by a transient transfection of 1.5 μg HaloTag_CDK12 Plasmid [Table 1] and 0.15 μg NanoLuc_DDB1 plasmid [Table 1] per well using PEI. Cells are incubated at 37° C., 5% CO2, harvested after 24 hours and resuspended in assay media (Opti-MEM Reduced serum media, no phenol red, 4% FBS, 1% PS). Cells are adjusted to 2.3×10^5 cells/ml and treated with HaloTag 618 Ligand at 100 nM or DMSO. 8000 cells are seeded per well in triplicates per compound in a white-walled 384-well plate, one negative control treated with DMSO instead of HaloTag 618 Ligand is seeded in triplicates and the 384-well plate is incubated at 37° C., 5% CO2 overnight. Compound stock solutions are prepared in Opti-MEM−/− (Opti-MEM I Reduced serum media, no phenol red) at 8× and used to treat the cells at a final concentration of 1× at 10 μM. Cells and compounds are incubated for 10 minutes at room temperature followed by addition of NanoBRET Nano-Glo substrate following manufacturer's protocols. The plate is shaken for 30 sec followed by immediate measurement of donor emission (NanoBRET Blue at 460 nm) and acceptor emission (BRET Deep Red at 647 nm) for 0.5 s.
The assay setup is identical to “NanoBRET fold change experimental setup”. Instead of treating cells in […] with 10 μM compound, a 10-point titration starting at 20 μM is performed with a dilution factor of 1:4, covering α range of 20000 nM-0.076 nM.

KBM7 cells (wild-type) = experiment: KBM7 CTG EC50 assay (UBE2M wild-type); format: cell-based, human; details: for EC50: Homo sapiens, KBM-7, 72 h incubation, CellTiter-Glo, read-out: KBM7 CTG EC50 (UBE2M wild-type) Activity Class; for Ratio UBE2M WT to KO: ratio of anti-proliferative activity in KBM7 wild-type versus UBE2M knock-out cells (fold)
Summary of the method: (§4)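 Wild-type KBM7 cells, or KBM7 cells with a hypomorphic UBE2M mutation that impairs Cullin-RING ligase activity, were treated for 72 h with compounds in a 10-point, 1:4 titration (0 to 20 μM). Viability was read by CellTiter-Glo 2.0 luminescence.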

[3] = tested on: KBM7 cells harboring a hypomorphic UBE2M mutation; experiment: KBM7 CTG EC50 assay (UBE2M knock-out); format: cell-based; details: Homo sapiens, KBM-7; 72 h incubation, CellTiter-Glo; read-out: KBM7 CTG EC50 (UBE2M knock-out) Activity Class
Summary of the method: as §4

CCNK = experiment: NanoLuc-CCNK degradation assay (HEK293T_Nluc_CCNK-tagged cells); format: cell-based; details: 4 h incubation, HEK293T_Nluc_CCNK-tagged cells
Summary of the method: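 HEK293T cells with nanoluciferase knocked in at the N-terminus of endogenous CCNK (CRISPR) exposed to a 10-point titration (0 to 10 μM, 1:4) in Opti-MEM I + 4% FBS for 4 h. Nano-Glo substrate then added and luminescence read as a measure of Cyclin K abundance.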

[4] = biological target: T2, Cdk12 (696-1,082)/CycK (1-267) protein complex (Homo sapiens, UniProt Q9NYV4); experiment: Cdk12 [high ATP] in vitro kinase activity assay; format: biochemical; details: physiological ATP concentrations (1 mM ATP), 50 μM compound
T2 construct: Cdk12 (696-1,082)/CycK (1-267) protein complex
Description: This assay on recombinant proteins allows assessment of the extent of inhibition of CDK12 kinase activity of compounds. The added benefit of Cyclin K degradation as opposed to CDK12 inhibition alone can thereby be estimated. The observed disconnect between CDK12 inhibition and efficacy in the KBM7 cell viability assay supports an important contribution of Cyclin K degradation to the therapeutic effect.
Kinase reactions (50 μl) were carried out with recombinant highly purified proteins. Cdk12 (696-1,082)/CycK (1-267) protein complex (0.5 μM) was preincubated with 50 μM of compound and vehicle control (DMSO) for 10 minutes at room temperature in kinase buffer (40 mM Tris pH 7.5, 20 mM MgCl2, 0.1 mg/ml BSA) prior the addition of pS7-CTD substrate peptide (Ac-YSPTSP-pS-YSPTSP-pS-YSPTSP-pS-Y-PEG2-RR-amide, 95% purity, Biosyntan, Germany) (100 μM) and further 10 min incubation at room temperature. Cold ATP (to a final concentration of 1 mM) was added, and the reaction mixture was incubated for 60 min at 30° C. at 500 rpm. Kinase activity was determined using the ADP-Glo™ Kinase Assay (Promega). The luminescence signal was measured using the multimode plate reader EnVision 2105 (Perkin Elmer).
Uniprot protein codes: (Cdk12) Q9NYV4, (CycK) 075909

[5] = biological target: Nanoluc_DDB1 (N-terminal Nanoluc luciferase, G4S linker, DDB1 (FL)) (UniProt Q16531); experiment: NanoBRET in HEK293T cells, 10 µM compound Example 3-48; class B = 3-4 fold increase
[6] = 10-point titration from 20 μM, HEK293T

T1 sequence (Q9NYV4 whole entry): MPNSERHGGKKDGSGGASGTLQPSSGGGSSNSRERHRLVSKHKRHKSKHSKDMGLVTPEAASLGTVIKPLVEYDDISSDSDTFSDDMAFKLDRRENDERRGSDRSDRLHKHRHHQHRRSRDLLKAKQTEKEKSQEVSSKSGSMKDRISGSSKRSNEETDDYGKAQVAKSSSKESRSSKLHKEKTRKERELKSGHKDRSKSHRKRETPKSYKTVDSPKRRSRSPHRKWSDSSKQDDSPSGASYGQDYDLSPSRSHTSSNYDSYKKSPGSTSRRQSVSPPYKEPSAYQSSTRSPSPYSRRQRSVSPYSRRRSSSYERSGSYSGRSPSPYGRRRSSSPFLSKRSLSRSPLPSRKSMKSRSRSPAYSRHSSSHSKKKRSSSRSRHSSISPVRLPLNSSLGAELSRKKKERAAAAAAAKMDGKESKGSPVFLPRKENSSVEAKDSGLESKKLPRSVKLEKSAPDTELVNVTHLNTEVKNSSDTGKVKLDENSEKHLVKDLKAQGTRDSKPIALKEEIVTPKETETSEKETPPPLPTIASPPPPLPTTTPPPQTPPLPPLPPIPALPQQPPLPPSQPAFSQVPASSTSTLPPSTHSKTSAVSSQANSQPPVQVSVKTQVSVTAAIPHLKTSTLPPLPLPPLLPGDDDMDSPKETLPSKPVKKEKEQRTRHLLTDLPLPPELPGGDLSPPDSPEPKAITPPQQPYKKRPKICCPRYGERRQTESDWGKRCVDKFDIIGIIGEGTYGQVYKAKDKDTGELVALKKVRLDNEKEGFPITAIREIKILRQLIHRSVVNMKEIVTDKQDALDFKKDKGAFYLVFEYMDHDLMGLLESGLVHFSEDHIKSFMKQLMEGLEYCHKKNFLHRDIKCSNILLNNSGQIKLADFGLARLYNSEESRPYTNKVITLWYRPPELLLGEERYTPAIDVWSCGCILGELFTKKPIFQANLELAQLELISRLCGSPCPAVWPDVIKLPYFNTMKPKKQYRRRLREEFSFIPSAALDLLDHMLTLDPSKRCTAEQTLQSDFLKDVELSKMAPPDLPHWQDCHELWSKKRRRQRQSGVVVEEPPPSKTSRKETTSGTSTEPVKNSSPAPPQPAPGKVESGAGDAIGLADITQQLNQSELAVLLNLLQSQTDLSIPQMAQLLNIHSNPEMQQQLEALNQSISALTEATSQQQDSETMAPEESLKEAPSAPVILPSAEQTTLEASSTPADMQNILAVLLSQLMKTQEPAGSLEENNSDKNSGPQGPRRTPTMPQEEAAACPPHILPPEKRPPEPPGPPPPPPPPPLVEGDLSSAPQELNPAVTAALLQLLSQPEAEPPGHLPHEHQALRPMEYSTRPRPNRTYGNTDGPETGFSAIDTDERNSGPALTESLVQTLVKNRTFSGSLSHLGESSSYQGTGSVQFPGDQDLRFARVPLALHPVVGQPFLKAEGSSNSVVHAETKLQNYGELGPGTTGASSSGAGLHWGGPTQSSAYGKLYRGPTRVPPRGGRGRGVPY
T1 sequence (Q16531 whole entry): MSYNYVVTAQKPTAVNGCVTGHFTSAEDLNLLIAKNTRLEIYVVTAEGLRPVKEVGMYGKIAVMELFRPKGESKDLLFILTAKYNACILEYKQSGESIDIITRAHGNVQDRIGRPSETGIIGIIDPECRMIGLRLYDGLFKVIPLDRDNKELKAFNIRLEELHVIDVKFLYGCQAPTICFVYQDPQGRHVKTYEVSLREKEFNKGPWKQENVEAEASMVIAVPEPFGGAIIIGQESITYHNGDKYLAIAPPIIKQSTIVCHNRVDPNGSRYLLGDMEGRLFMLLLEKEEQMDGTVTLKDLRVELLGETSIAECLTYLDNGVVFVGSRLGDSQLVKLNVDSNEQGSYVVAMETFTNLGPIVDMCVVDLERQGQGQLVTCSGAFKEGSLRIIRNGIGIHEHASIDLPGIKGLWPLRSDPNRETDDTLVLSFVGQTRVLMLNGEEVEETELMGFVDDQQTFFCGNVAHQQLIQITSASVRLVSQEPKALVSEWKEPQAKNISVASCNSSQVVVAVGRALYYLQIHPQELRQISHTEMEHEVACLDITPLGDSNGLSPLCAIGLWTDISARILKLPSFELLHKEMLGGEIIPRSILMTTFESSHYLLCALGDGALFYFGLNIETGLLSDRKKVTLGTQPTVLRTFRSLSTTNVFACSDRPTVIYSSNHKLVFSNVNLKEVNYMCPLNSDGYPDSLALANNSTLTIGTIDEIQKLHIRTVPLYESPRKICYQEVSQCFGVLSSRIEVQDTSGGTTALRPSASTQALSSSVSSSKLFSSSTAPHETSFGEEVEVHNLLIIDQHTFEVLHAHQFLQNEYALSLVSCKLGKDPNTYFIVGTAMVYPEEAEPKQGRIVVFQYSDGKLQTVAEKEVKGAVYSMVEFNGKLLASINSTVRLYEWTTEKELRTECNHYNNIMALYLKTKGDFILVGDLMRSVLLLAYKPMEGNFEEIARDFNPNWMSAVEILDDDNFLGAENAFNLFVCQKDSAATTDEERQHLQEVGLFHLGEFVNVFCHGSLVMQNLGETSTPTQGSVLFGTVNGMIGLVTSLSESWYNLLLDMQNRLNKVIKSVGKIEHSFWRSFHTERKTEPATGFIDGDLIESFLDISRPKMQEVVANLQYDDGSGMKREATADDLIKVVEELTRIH
T1 sequence (O75909 whole entry partner): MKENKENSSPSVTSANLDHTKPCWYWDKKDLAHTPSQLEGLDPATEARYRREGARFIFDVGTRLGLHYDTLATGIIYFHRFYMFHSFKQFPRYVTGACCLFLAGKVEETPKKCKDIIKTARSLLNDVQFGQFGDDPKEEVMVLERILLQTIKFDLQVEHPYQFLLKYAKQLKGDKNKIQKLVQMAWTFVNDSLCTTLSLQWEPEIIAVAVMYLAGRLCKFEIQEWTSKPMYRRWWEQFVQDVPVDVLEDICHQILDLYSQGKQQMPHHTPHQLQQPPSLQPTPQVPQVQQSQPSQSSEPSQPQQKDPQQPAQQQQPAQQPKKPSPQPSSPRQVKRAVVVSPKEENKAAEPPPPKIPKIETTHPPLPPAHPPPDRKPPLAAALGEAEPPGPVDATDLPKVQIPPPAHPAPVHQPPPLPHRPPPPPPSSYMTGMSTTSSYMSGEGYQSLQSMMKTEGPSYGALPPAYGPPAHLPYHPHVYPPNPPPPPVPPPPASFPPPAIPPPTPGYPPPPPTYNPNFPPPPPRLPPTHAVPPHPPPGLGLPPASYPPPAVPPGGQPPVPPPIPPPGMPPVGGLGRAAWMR
T2 sequence (Q9NYV4 696-1082 limits assumed): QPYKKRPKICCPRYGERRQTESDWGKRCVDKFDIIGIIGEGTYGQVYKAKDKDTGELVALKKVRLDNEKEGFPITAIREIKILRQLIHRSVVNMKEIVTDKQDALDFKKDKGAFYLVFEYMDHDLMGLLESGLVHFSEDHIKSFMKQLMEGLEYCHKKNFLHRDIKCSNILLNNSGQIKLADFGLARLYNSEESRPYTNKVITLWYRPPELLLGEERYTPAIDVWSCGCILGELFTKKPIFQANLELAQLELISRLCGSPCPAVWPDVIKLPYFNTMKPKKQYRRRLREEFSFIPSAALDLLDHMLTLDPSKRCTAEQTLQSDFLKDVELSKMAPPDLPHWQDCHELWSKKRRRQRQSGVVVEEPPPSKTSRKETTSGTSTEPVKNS
T2 sequence (O75909 1-267 partner limits assumed): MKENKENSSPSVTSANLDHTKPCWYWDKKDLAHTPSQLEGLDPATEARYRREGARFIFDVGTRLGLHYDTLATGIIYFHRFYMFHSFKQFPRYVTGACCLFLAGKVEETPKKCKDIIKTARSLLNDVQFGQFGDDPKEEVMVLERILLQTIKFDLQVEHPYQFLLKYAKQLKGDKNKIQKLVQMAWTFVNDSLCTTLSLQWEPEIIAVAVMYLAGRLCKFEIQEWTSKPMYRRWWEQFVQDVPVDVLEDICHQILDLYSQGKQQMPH
Sequence of Nanoluc_DDB1 (N-terminal Nanoluc luciferase, G4S linker, DDB1 (FL)) (Q16531 other isoform, or with tags, fused parts or gaps): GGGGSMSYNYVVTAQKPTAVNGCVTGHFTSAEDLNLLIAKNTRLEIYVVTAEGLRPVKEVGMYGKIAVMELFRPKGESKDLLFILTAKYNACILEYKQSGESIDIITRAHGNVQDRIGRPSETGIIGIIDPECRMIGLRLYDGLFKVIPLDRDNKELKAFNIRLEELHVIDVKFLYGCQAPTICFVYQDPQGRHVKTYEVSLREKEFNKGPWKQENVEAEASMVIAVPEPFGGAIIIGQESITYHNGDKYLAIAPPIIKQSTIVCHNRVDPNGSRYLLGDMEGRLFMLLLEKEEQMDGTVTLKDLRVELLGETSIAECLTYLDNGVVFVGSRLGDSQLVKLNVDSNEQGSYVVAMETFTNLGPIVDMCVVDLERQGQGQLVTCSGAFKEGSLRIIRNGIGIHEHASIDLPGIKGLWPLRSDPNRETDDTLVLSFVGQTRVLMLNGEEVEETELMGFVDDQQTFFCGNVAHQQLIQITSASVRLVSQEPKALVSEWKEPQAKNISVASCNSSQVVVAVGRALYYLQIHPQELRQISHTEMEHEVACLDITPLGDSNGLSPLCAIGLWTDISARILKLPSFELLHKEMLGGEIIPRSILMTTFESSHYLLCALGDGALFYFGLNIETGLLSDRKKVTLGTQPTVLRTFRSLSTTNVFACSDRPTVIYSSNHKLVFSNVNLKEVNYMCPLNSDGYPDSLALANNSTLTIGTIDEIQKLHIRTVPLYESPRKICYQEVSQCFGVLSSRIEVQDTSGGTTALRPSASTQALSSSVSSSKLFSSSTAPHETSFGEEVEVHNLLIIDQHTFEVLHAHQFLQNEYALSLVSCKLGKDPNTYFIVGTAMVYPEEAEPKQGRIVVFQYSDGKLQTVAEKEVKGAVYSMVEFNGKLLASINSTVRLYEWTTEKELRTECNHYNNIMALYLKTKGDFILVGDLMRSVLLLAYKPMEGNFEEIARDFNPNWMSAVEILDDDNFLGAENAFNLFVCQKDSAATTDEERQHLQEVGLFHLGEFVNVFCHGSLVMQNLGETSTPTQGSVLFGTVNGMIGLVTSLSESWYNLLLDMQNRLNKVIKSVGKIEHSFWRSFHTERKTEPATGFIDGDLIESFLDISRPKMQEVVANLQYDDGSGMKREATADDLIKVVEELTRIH

Molecule | CC50 (KBM7_WT cells) [µM] | CC50 (UBE2M_MUT KBM7 cells) [µM] | CC50 (CUL4B_MUT KBM7 cells) [µM] | further results
O=C(Nc1nc2c(s1)CCCC2)C1CCCN1C(=O)c1ccccc1 (centres unmarked) [Example Z3] | 11.8 | > 10 | > 10 | –
CC[C@H](CO)Nc1nc(NCc2ccc(-c3ccccn3)cc2)c2ncn(C(C)C)c2n1 [CR8] | – | – | – | Cyclin K degradation, in words (Cyclin K): cause Cyclin K degradation
O=C(NCCCNc1ccc(C(F)(F)F)cn1)c1ccccc1 [Example Z14] | 4.69 | > 10 | > 10 | –
O=C1CC(CNc2ncc(Cl)cn2)CN1CCc1ccccc1 (centres unmarked) [Example Z10] | 7.82 | > 10 | > 10 | –
O=C(Cc1cnc2ccccc2c1)Nc1ncc(C(F)(F)F)s1 [Example 3-36, 2-(quinolin-3-yl)-N-(5-(trifluoromethyl)thiazol-2-yl)acetamide] | – | – | – | NanoBRET fold-change Activity Class [1]: C (2-3 fold increase); activity in NanoBRET assay (ternary complex formation), in words [2]: good activity; NanoBRET EC50 Activity Class [2, 6]: B (0.50 μM≤EC50≤0.25 μM); EC50 (KBM7 cells (wild-type)): ≤ 0.25 µM; activity in KBM7 cytotoxicity assay, in words (KBM7 cells (wild-type); KBM7): extremely potent activity; EC50 [3]: ≤ 0.25 µM; DC50 (CCNK; read-out: NanoLuc-CCNK degradation DC50 Activity Class): ≤ 0.1 µM; Cdk12 inhibition, in words [4]: weak Cdk12 inhibition
O=C(CCn1cnc2ccccc2c1=O)Nc1ccc(Br)cn1 [Example Z7] | 1.81 | > 10 | > 10 | –
COc1ccc(C)cc1N1CC(C(=O)Nc2nc3ccccc3[nH]2)CC1=O (centres unmarked) [Example Z11] | 0.92 | 2.75 | 2 | –
Cc1ccc(NC(=O)C2CC(=O)N(c3cccc(Cl)c3)C2)nc1 (centres unmarked) [Example Z9] | 2.35 | > 10 | > 10 | –
Cc1cnc(NC(=O)C2CC(=O)N(c3cccc(Cl)c3Cl)C2)s1 (centres unmarked) [Example Z13] | 1.29 | 6.99 | 5.68 | –
Cc1cc(NC(C)C(=O)Nc2ccc(Cl)cn2)ccc1Br (centres unmarked) [Example Z6] | 1.57 | 6.8 | 6.06 | –
COc1ccc2cc(C(C)C(=O)Nc3ncc(C)s3)ccc2c1 (centres unmarked) [Example Z2] | 1.35 | > 10 | > 10 | –
Cc1ccc2c(CC(=O)Nc3nccs3)coc2c1C [Example Z1] | 7.12 | > 10 | > 10 | –
Cc1ccc2c(CC(=O)Nc3ccc(Br)cn3)coc2c1C [Example 3-53, N-(5-bromopyridin-2-yl)-2-(6,7-dimethylbenzofuran-3-yl)acetamide] | – | – | – | NanoBRET fold-change Activity Class [1]: B (3-4 fold increase); EC50 [2, 6]: > 10 µM; EC50 (KBM7 cells (wild-type)): ≤ 0.25 µM; Ratio UBE2M WT to KO (KBM7 cells (wild-type)): 22.7; EC50 [3]: 1 to 10 µM; NanoLuc-CCNK degradation DC50 Activity Class (CCNK): B (0.50 μM≤DC50<0.10 μM)
Cc1cn2nc(NCCNc3ccc(C#N)cn3)sc2n1 [Example Z5] | 3.75 | > 10 | > 10 | –
CN(C)C/C=C/C(=O)Nc1ccc(C(=O)N2CCC[C@@H](Nc3ncc(Cl)c(-c4c[nH]c5ccccc45)n3)C2)cc1 [THZ-531] | – | – | – | Cyclin K degradation, in words (Cyclin K): did not cause cyclin K degradation
Cc1ccc(NC(=O)Cc2coc3c(C)c(C)ccc23)nc1 [Example 3-50, 2-(6,7-dimethylbenzofuran-3-yl)-N-(5-methylpyridin-2-yl)acetamide] | – | – | – | NanoBRET fold-change Activity Class [1]: A (greater than 4-fold increase); EC50 [2, 6]: ≤ 0.25 µM; EC50 (KBM7 cells (wild-type)): 0.25 to 0.5 µM; Ratio UBE2M WT to KO (KBM7 cells (wild-type)): >10; EC50 [3]: > 10 µM; NanoLuc-CCNK degradation DC50 Activity Class (CCNK): D (10 μM≤DC50<1.0 μM)
HaloTag_CDK12 (N-terminal HaloTag, G4S linker, CDK12 (713-1052)) (from UniProt Q9NYV4 713-1052) (HEK293T cells) | – | – | – | NanoBRET fold increase [5]: 3 to 4 fold
